PubChem BioAssay AID588387 (NMMLSC, 2011)
Active and inactive are the calls of the source.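 Rule for the calls: active = half-maximal binding-loss concentration at or below 10 µM, response change across doses of 30% or more, acceptable curve fit; inactive = the rest.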

What follows are compounds tested against GTPase HRas (Homo sapiens) (UniProt P01112) (assay: inhibition of Bodipy-GTP binding to activated H-Ras – biochemical, multiplex bead flow cytometry, round 1, SAR follow-up (AID 588387)). Conditions: GST-H-Ras beads, Bodipy-FL-GTP binding.
Sequence of GTPase HRas (Homo sapiens) (P01112 whole entry, looked up): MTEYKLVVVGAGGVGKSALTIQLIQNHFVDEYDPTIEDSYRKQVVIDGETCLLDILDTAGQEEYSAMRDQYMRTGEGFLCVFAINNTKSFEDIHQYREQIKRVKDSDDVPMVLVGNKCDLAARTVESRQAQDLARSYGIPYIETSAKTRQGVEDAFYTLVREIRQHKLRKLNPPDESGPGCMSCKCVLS

SMILES	EC50
CC1(C)CCc2sc(NC(=S)NC(=O)c3ccccc3)c(C(=O)O)c2C1	76 nM
CC1Cc2c(sc(NC(=S)NC(=O)c3ccccc3)c2C(=O)O)CO1 (configuration not stated)	47 nM
O=C(NC(=S)Nc1sc2c(c1C(=O)O)CCOC2)c1ccccc1	32 nM

The next lines start with the values.

EC50	SMILES
51 nM	CC1(C)Cc2c(sc(NC(=S)NC(=O)c3ccccc3F)c2C(=O)O)CO1
82 nM	CC1(C)Cc2c(sc(NC(=S)NC(=O)c3ccccc3)c2C(=O)O)CO1
260 nM	CC1(C)Cc2c(sc(NC(=S)NC(=O)c3ccc(Br)cc3)c2C(=O)O)CO1
151 nM	CC1(C)Cc2c(sc(NC(=O)NC(=O)c3ccccc3)c2C(=O)O)CO1
33 nM	COc1cccc(C(=O)NC(=S)Nc2sc3c(c2C(=O)O)CC(C)(C)OC3)c1
45 nM	CC1(C)Cc2c(sc(NC(=S)NC(=O)c3ccccc3Br)c2C(=O)O)CO1
145 nM	COc1ccc(C(=O)NC(=S)Nc2sc3c(c2C(=O)O)CC(C)(C)OC3)cc1
278 nM	CC1(C)Cc2c(sc(NC(=S)NC(=O)c3cccc(F)c3)c2C(=O)O)CO1

Same assay, conditions: GST-H-Ras beads, Bodipy-FL-GTP binding, at 100 µM (top of the series)

SMILES	% response (remaining GTP binding)
CC(C)(C)OC(=O)c1c(NC(=S)NC(=O)c2ccccc2)sc2c1CCOC2	inactive
Cc1ccc(Nc2nc3sc4c(c3c(=O)o2)CCN(C)C4)cc1	inactive
Cc1ccc(NC(=O)Nc2sc3c(c2C(=O)O)CCN(C)C3)cc1	inactive
CCOC(=O)c1c(NC(=O)Nc2ccc(F)cc2)sc2c1CCN(C)C2	inactive
CN1CCc2c(sc3nc(Nc4ccc(F)cc4)oc(=O)c23)C1	inactive
CCOC(=O)c1c(N)sc2ccccc12	inactive
COC(=O)c1c(N)sc2c1CC(C)(C)OC2	inactive
CCOC(=O)c1c(NC(=S)NC(=O)c2ccccc2)sc2ccccc12	inactive
CCOC(=O)c1c(NC(=O)Nc2ccc(C)cc2)sc2c1CCN(C)C2	inactive
CCOC(=O)c1c(NC(=O)NC(C)(C)C)sc2c1CCN(C)C2	inactive
CCOC(=O)c1c(NC(=S)Nc2ccccc2)sc2c1CC(C)(C)OC2	inactive
CN1CCc2c(sc(NC(=O)Nc3ccc(F)cc3)c2C(=O)O)C1	inactive

Continued, values first:

% response (remaining GTP binding)	SMILES
inactive	CC1(C)Cc2c(sc(NC(=O)Cc3ccccc3)c2C(=O)O)CO1
inactive	COC(=O)c1c(NC(=S)NC(=O)c2ccccc2)sc2c1CC(C)(C)OC2
inactive	CC1(C)Cc2c(sc(NC(=S)NC(=O)c3cccc(Br)c3)c2C(=O)O)CO1
inactive	CC1(C)Cc2c(sc(NC(=S)Nc3ccccc3)c2C(=O)O)CO1
